In this experiment the target is Calcium/calmodulin-dependent protein kinase type II subunit delta (Homo sapiens, UniProt Q13557). The experiment in a line: Inhibition of CaMK2delta.
Calcium/calmodulin-dependent protein kinase type II subunit delta, sequence (Q13557 whole entry): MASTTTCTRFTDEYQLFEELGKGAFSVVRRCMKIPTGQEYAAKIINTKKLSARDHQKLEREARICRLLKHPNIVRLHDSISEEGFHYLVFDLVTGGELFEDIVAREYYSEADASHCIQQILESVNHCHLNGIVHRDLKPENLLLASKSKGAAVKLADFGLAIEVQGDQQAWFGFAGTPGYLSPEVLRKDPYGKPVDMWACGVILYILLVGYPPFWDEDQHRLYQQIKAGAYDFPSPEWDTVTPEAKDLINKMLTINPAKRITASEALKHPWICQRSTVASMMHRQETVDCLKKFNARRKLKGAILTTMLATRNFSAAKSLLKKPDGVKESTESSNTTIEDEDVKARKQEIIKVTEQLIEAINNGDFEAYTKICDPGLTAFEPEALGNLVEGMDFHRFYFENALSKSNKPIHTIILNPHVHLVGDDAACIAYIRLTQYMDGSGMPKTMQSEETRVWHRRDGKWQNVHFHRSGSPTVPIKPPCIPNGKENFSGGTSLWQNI
Broadly, the IC50 is the concentration that gives 50% inhibition. As to `CN1CCCC1CCn1cc(C2=C(c3c[nH]c4ccccc34)C(=O)NC2=O)c2ccccc21` (stereo not drawn), the IC50 turned out to be 1890 nM.
The same measure for `CC(C)(C)OC(=O)NCCCn1cc(C2=C(c3c[nH]c4ccccc34)C(=O)NC2=O)c2ccccc21`: 3810 nM; for `Cn1cc(C2=C(c3c[nH]c4ccc(Br)cc34)C(=O)NC2=O)c2ccccc21`: 870 nM.
The same measure for `NCCCn1cc(C2=C(c3ccccc3)C(=O)NC2=O)c2ccccc21`: 1350 nM; for `Cn1cc(C2=C(c3cn(CCCN)c4ccccc34)C(=O)NC2=O)c2ccccc21`: 310 nM.
For `Cn1cc(C2=C(c3cn(C4CCN(Cc5ccccc5)CC4)c4ccccc34)C(=O)NC2=O)c2ccccc21`, the IC50 is 1870 nM.
The same measure for `O=C1NC(=O)C(c2c[nH]c3ccccc23)=C1c1ccccc1`: greater than 20000 nM.
The same measure for `NCCCn1cc(C2=C(c3c[nH]c4ccc(Br)cc34)C(=O)NC2=O)c2ccccc21`: 34 nM; for `O=C1NC(=O)C(c2cn(CCC3CCCCN3)c3ccccc23)=C1c1c[nH]c2ccccc12` (stereo not drawn): 1450 nM.
Consider `NCC(O)Cn1cc(C2=C(c3ccccc3)C(=O)NC2=O)c2ccccc21` (stereo not drawn), for which the IC50 stood at 450 nM.
The same measure for `O=C1NC(=O)C(c2c[nH]c3ccccc23)=C1c1cccc(Br)c1`: 3530 nM; for `CC(C)(C)OC(=O)NCCCn1cc(C2=C(c3ccccc3)C(=O)NC2=O)c2ccccc21`: greater than 20000 nM; for `Cn1cc(C2=C(c3cn(C4CCCNC4)c4ccccc34)C(=O)NC2=O)c2ccccc21` (stereo not drawn): 300 nM.
For `CC(C)(C)OC(=O)NCCCn1cc(C2=C(c3c[nH]c4ccc(Br)cc34)C(=O)NC2=O)c2ccccc21`, the IC50 was found to be 7540 nM.
The same measure for `NCCCn1cc(C2=C(c3cccc(Br)c3)C(=O)NC2=O)c2ccccc21`: 180 nM.
The figure for `O=C1NC(=O)C(c2cn(CCCN3CCNCC3)c3ccccc23)=C1c1c[nH]c2ccccc12` is 2020 nM.
The figure for `Cn1cc(C2=C(c3ccccc3)C(=O)NC2=O)c2ccccc21` is greater than 20000 nM; for `O=C1NC(=O)C(c2c[nH]c3ccccc23)=C1c1c[nH]c2ccccc12` [RO-316233] it is 1190 nM.

(Values after ChEMBL document CHEMBL1143897, “Aryl-indolyl maleimides as inhibitors of CaMKIIdelta. Part 2: SAR of the amine tether” (Bioorg Med Chem Lett, 2008).)
